Test [1] has as its system HeLa. The test can be described thus: Anti-proliferative activity against HeLa cells. Type of test: functional, cell-based. The settings on record: Homo sapiens.
In test [2] the target is T1, Serine/threonine-protein kinase Sgk1 (Homo sapiens, UniProt O00141).
T1 sequence (O00141 whole entry): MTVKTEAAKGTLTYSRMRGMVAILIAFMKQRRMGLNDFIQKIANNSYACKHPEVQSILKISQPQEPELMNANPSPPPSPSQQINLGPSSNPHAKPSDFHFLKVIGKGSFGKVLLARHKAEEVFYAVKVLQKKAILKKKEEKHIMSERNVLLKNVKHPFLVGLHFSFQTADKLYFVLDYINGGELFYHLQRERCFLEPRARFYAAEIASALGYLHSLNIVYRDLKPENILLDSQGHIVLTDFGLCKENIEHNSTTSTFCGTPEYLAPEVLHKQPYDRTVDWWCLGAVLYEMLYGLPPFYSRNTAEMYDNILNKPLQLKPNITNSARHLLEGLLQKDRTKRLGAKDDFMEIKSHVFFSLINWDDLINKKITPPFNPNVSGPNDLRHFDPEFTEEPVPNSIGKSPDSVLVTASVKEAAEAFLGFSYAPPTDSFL
Put plainly: Inhibition of Serum/glucocorticoid regulated kinase (SGK).

The subject of test [3] is HeLa. Put plainly: Ratio of antiproliferative activities (EC50) against HeLa Cells to that with 150 nM doxorubicin. Type of test: functional, Homo sapiens.
Test [4] can be described thus: Inhibition of Protein kinase A (PKA).
Test [5] has as its system HeLa. The test can be described thus: Anti-proliferative activity against HeLa cells in the presence of 150 nM of doxorubicin. Type of test: functional, cell-based. The settings on record: Homo sapiens.
For the next test, the target named is T2, Aurora kinase A (Homo sapiens, UniProt O14965).
T2 sequence (O14965 whole entry): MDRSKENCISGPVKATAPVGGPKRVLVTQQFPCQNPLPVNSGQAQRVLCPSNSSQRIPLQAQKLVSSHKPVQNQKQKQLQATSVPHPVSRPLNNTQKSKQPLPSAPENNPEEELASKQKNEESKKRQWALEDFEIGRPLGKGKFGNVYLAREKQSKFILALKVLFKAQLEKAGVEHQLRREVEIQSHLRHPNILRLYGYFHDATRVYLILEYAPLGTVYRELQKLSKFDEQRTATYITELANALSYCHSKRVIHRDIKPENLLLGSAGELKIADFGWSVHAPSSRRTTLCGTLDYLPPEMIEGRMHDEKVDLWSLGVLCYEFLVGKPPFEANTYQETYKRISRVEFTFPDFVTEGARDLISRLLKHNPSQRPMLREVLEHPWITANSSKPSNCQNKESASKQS
The test can be described thus: Inhibition of Aurora kinase A (Aur1).

For test [6], the target named is Mitogen-activated protein kinase 1 (Homo sapiens, UniProt P28482). The test can be described thus: Inhibition of Extracellular signal-regulated kinase 2 (ERK2).
Test [7] deals with MAP/microtubule affinity-regulating kinase 3 (Homo sapiens, UniProt P27448). The test can be described thus: Inhibition of MAP/microtubule affinity-regulating kinase 3 (cTak1).
Test [8] has as its target Protein kinase C delta type (Homo sapiens, UniProt Q05655). Put plainly: Inhibition of Protein kinase C delta (PKCdelta).
The target in test [9] is Cyclin-dependent kinase 1 (Homo sapiens, UniProt P06493). Put plainly: Inhibition of Serine/threonine kinase Cdc2 (Cdc2).
The target in test [10] is RAC-alpha serine/threonine-protein kinase (Homo sapiens, UniProt P31749). Put plainly: Inhibition of Protein kinase B, alpha (Akt1).
Test [11] deals with T3, Serine/threonine-protein kinase Chk1 (Homo sapiens, UniProt O14757).
T3 sequence (O14757 whole entry): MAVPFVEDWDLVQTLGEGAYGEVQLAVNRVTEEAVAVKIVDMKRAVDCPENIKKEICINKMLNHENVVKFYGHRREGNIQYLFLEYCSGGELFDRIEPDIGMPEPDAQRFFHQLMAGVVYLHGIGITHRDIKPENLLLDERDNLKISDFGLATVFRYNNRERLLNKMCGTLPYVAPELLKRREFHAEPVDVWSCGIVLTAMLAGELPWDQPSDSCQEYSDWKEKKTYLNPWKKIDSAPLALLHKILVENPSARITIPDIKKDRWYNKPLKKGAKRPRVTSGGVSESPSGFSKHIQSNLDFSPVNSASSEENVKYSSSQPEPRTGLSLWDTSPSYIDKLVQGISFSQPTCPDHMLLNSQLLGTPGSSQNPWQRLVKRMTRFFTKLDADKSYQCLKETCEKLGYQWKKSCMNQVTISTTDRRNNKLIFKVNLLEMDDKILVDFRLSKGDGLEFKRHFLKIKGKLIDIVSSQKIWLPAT
The test can be described thus: Inhibition of Serine/threonine-protein kinase Chk1.

The nature of test [12]: Inhibition of Protein kinase C gamma (PKCgamma).
In test [13] the target is Serine/threonine-protein kinase Chk2 (Homo sapiens, UniProt O96017). Put plainly: Inhibition of Serine/threonine-protein kinase Chk2.
Test [14] relates to SW-620. The test can be described thus: Concentration required to inhibit growth of SW620 (human colon cancer) cells in the presence of 10 uM of Compound 2e. In kind it is functional, cell-based.
Test [15] relates to SW-620. The test can be described thus: Concentration required to inhibit growth of SW620 (human colon cancer) cells. Type of test: functional, cell-based.

Each structure is given as a SMILES string.

RAC-alpha serine/threonine-protein kinase, sequence (P31749 whole entry): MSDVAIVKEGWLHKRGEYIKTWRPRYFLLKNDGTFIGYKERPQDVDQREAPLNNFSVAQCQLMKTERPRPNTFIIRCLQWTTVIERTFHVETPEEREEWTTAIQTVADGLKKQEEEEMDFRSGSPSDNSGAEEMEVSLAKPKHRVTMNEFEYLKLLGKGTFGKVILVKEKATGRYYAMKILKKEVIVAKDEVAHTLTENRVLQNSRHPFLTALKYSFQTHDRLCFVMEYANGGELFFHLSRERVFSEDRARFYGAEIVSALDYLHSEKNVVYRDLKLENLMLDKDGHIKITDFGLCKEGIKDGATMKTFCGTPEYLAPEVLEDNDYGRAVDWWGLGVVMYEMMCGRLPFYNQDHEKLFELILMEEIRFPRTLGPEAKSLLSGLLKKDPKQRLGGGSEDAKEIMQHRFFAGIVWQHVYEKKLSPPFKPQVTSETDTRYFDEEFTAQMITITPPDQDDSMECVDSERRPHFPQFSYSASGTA
Protein kinase C delta type, sequence (Q05655 whole entry): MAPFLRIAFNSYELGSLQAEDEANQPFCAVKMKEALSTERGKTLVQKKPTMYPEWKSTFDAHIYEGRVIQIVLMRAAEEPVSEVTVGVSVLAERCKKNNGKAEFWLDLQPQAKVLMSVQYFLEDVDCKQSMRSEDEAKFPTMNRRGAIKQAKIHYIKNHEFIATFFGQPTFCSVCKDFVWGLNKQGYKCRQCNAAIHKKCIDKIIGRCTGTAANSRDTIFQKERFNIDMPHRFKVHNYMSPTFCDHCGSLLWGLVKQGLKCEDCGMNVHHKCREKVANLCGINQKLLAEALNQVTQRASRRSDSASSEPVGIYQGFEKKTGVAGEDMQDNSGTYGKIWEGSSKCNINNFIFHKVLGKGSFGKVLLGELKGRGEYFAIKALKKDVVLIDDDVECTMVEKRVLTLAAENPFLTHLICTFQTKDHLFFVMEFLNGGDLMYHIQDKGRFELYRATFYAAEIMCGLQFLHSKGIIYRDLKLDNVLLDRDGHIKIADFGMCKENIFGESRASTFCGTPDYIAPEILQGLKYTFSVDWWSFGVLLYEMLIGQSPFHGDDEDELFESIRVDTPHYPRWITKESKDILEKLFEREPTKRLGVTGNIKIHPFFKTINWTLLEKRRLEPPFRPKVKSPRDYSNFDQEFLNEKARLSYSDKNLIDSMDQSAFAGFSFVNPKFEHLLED
Mitogen-activated protein kinase 1, sequence (P28482 whole entry): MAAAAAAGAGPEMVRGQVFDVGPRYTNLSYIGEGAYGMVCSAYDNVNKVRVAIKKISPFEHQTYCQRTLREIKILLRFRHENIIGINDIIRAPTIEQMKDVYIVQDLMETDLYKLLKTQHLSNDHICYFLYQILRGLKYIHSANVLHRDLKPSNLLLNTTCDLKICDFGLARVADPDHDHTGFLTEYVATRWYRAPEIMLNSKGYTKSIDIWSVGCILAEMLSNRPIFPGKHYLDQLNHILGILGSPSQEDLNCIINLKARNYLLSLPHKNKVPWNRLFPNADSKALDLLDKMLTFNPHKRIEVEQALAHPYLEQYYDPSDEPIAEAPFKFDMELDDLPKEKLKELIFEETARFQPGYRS
Cyclin-dependent kinase 1, sequence (P06493 whole entry): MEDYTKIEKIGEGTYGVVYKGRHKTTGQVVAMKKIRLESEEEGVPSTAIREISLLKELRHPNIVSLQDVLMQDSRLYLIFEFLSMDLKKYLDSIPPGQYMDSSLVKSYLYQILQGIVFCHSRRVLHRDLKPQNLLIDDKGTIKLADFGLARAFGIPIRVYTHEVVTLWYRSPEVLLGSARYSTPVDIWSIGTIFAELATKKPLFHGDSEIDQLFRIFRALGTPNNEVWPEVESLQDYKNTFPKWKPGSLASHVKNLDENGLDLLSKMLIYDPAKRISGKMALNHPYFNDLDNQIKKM
MAP/microtubule affinity-regulating kinase 3, sequence (P27448 whole entry): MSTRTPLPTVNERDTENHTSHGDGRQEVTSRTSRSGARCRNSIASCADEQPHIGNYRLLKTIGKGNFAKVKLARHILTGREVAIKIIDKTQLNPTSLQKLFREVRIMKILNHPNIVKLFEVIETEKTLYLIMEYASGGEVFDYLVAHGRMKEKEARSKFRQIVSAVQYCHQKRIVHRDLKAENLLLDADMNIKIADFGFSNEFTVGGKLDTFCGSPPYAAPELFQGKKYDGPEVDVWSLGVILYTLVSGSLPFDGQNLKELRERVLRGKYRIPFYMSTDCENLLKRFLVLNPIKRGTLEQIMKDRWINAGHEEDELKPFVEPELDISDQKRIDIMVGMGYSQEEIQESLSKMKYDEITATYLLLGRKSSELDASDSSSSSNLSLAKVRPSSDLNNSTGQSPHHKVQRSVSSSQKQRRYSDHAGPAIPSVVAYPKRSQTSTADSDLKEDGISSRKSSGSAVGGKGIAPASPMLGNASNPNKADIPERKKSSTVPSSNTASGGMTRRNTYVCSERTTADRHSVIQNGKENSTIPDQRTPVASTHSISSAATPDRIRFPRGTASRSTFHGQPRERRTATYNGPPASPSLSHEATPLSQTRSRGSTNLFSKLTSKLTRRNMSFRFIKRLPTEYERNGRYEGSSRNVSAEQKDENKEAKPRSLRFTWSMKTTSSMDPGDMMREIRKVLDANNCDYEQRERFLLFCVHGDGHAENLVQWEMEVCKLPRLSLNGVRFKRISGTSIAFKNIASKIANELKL
Serine/threonine-protein kinase Chk2, sequence (O96017 whole entry): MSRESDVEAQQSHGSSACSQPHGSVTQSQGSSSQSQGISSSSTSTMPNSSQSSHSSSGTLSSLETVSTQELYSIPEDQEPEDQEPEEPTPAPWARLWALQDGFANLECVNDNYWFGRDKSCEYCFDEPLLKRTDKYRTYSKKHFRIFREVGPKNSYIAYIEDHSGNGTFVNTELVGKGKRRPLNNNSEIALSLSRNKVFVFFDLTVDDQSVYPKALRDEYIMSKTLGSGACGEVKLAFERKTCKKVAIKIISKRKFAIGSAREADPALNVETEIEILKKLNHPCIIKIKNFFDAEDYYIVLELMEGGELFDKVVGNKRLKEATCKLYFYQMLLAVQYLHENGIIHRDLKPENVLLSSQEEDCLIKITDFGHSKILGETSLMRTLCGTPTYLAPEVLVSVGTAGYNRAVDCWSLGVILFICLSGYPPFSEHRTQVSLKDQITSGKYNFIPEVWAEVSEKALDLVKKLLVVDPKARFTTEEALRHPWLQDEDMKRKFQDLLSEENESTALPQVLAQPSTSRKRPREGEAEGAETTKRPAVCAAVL

Turning to `CC1(COc2ccc(Cl)cc2NC(=O)Nc2cnc(C#N)cn2)COC1`, the EC50 in the test with HeLa [1] was greater than 59 µM; in the test with HeLa [5] it was 2.6 µM. Also, the IC50 in [2] was greater than 50 µM; in [4], greater than 50 µM; on Aurora kinase A it was greater than 10 µM; in [6], greater than 50 µM; in test [7], greater than 10 µM; in [8], greater than 50 µM. Also, the IC50 in [9] is greater than 50 µM; in test [10] it was 9.21 µM; in [11], 0.007 µM; in test [12], greater than 50 µM. Besides, the Ratio in the test with HeLa [3] is listed as greater than 22.
As to `CN1CCC(Oc2ccc(Cl)cc2NC(=O)Nc2cnc(C#N)cn2)CC1`, the EC50 stood at 10.4 µM in the test with HeLa [1] and 10 µM in the test on HeLa [5]. For the same compound, in the test on HeLa [3], the Ratio was 1. The same compound came in with an IC50 in test [11] of 0.01 µM.
The like results for `N#Cc1cnc(NC(=O)Nc2cc(Cl)ccc2OC2CCOC2)cn1` (stereo unspecified) were, in that order, 18.7 µM, 5 µM, 3.6 and 0.003 µM.
With `CC(CN(C)C)Oc1ccc(Cl)cc1NC(=O)Nc1cnc(C#N)cn1` (stereo unspecified), the IC50 in [13] was 2.8 µM; in [2], greater than 50 µM; in test [4], greater than 50 µM; against Aurora kinase A it was 3.23 µM; in test [6] it was greater than 50 µM; in test [7], 1.51 µM. The IC50 in test [8] is 50 µM; in test [9] it was greater than 50 µM; in test [10] it was greater than 50 µM; in test [11] it was 0.008 µM; in test [12], 50 µM. Besides, the EC50 in the test with HeLa [1] was 1.5 µM; in the test on HeLa [5], 0.4 µM. In the test on HeLa [3], the Ratio is recorded as 3.7.
In the case of `N#Cc1cnc(NC(=O)Nc2cc(Cl)ccc2OC2CCOCC2)cn1`, the EC50 in the test with HeLa [1] is greater than 59 µM; in the test with HeLa [5] it was 37 µM. Moreover, the Ratio in the test with HeLa [3] was greater than 1. In addition, half-maximal inhibition in test [11] (IC50) was put at 0.005 µM.
With `CC[C@@]1(O)C(=O)OCc2c1cc1n(c2=O)Cc2cc3ccccc3nc2-1` [CAMPTOTHECIN], the EC50 with SW-620 [14] was determined as 0.00015 µM; in the test on SW-620 [15], 0.0012 µM.

For the origin of these results see ChEMBL document CHEMBL1143624, “1-(5-Chloro-2-alkoxyphenyl)-3-(5-cyanopyrazin-2-yl)ureas [correction of cyanopyrazi] as potent and selective inhibitors of Chk1 kinase: synthesis, preliminary SAR, and biological activities” (J Med Chem, 2005).
